Laboratory results taken from patent US20250313533A1, “QUINOLINE CARBOXYLIC ACID ESTER COMPOUND AND PREPARATION METHOD AND USE THEREOF” (priority 2019, published 2025).

How the values were obtained:
[1] = system: pathogenic bacteria causing bacterial angular leaf spot in cucumbers; assay: In vitro bactericidal activity, bacterial angular leaf spot in cucumbers; format: cell-based, pseudomonas; settings: read-out: inhibitory rate; for inhibition at 1 ppm: dosage 1 ppm; for inhibition at 5 ppm: dosage 5 ppm
[2] = system: pathogenic bacteria causing bacterial wilt in tobacco; assay: whole plant or invertebrate; format: cell-based, ralstonia; settings: read-out: inhibitory rate
[3] = system: pathogenic bacteria causing black shank in potatoes; assay: In vitro bactericidal activity, black shank in potatoes; format: cell-based; settings: read-out: inhibitory rate; for inhibition at 1 ppm: dosage 1 ppm; for inhibition at 5 ppm: dosage 5 ppm
[4] = system: pathogenic bacteria causing stem rot in sweet potatoes; assay: In vitro bactericidal activity, stem rot in sweet potatoes; format: cell-based, dikia; settings: read-out: inhibitory rate; for inhibition at 1 ppm: dosage 1 ppm; for inhibition at 5 ppm: dosage 5 ppm
[5] = system: pathogenic bacteria causing bacterial blight in rice; assay: whole plant or invertebrate; format: cell-based, xanthomonas; settings: read-out: inhibitory rate
[6] = system: pathogenic bacteria causing fruit blotch in watermelons; assay: In vitro bactericidal activity, fruit blotch in watermelons; format: cell-based, acidovorax; settings: read-out: inhibitory rate; for inhibition at 1 ppm: dosage 1 ppm; for inhibition at 5 ppm: dosage 5 ppm
[7] = system: pathogenic bacteria causing black rot in Chinese cabbages; assay: In vitro bactericidal activity, black rot in Chinese cabbages; format: cell-based, xanthomonas; settings: Xanthomonas, read-out: inhibitory rate; for inhibition at 1 ppm: dosage 1 ppm; for inhibition at 5 ppm: dosage 5 ppm
[8] = system: pathogenic bacteria causing bacterial wilt in cassava; assay: organism not typed; format: cell-based; settings: read-out: inhibitory rate
[9] = system: pathogenic bacteria causing fire blight in pears; assay: In vitro bactericidal activity, fire blight in pears; format: cell-based, erwinia; settings: Erwinia, read-out: inhibitory rate; for inhibition at 1 ppm: dosage 1 ppm; for inhibition at 5 ppm: dosage 5 ppm
black shank in potatoes = assay: Living crops in vivo protective activity, potatoes (root irrigation); settings: Solanum tuberosum, read-out: efficacy against black shank in potatoes; for pest or weed control at 5 ppm: dosage 5 ppm; for pest or weed control at 10 ppm: dosage 10 ppm
Experimental: Root irrigation was carried out on the potatoes for tests according to the designed concentration of the agents. The dosage for each plant was 200 mL and was kept consistent (also for the control). The black shank bacteria were inoculated on the second day after the application. The results were investigated according to the disease condition.

[10] = system: indoor potted cucumber seedlings; assay: Effect of improving growth and development of crops; format: in vivo; design: Rate of growth rate increase (%): concentration or dose not given beside the values; settings: versus blank control; for Rate of chlorophyll content increase (%) / Rate of leaf area increase (%): 14 days after application; for Rate of growth rate increase (%): plant height 14 days after application; for Rate of leaf area increase (%): second leaf
Experimental: Taking indoor potted cucumber seedlings as an example, the influence of the compound disclosed herein on growth rate of plant height, chlorophyll content, leaf area, etc. of crops was mainly evaluated.
The plant heights of plants before application and 14 days after the application were measured.
The growth rates were calculated according to formula (1)
The rates of the growth rate increase (%) were calculated according to formula (2)
The longitudinal and transverse diameters (i.e., leaf length and leaf width, respectively, wherein the leaf length is the distance from the base to the tip of a leaf, and leaf width is the measured value of the upper shoulder width of the leaf) of the second leaf of plants before application and 14 days after the application were measured.
The leaf areas were calculated according to formula (3)
The leaf area increases were calculated according to formula (4)
The rates of the leaf area increases were calculated according to formula (5)
The chlorophyll contents of leaves were measured by using a chlorophyll measuring instrument (model: SPAD-520 Plus).
The chlorophyll content increases were calculated according to formula (6)
The rates of the chlorophyll content increases were calculated according to formula (7)

cucumber seedlings = assay: Safety for plant growth after application; format: in vivo; settings: dosage 200 ppm
Outline: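 Potted cucumber seedlings grown indoors; read-outs: plant-height growth rate, chlorophyll content, leaf area.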

[11] = system: bacterial wilt in tobacco; assay: whole plant or invertebrate; settings: Nicotiana tabacum, read-out: efficacy against bacterial wilt in tobacco
[12] = system: stem rot in sweet potatoes; assay: whole plant or invertebrate; settings: read-out: efficacy against stem rot in sweet potatoes
bacterial blight in rice = assay: whole plant or invertebrate; settings: Oryza sativa, read-out: efficacy against bacterial blight in rice
[13] = system: fruit blotch in watermelons; assay: whole plant or invertebrate; settings: read-out: efficacy against fruit blotch in watermelons
[14] = system: soft rot in Chinese cabbages; assay: whole plant or invertebrate; settings: 48 h, read-out: efficacy against soft rot in Chinese cabbages

SMILES	inhibition at 1 ppm [1] [%]	inhibition at 5 ppm [1] [%]	inhibition at 1 ppm [2] [%]	inhibition at 5 ppm [2] [%]	inhibition at 1 ppm [3] [%]	inhibition at 5 ppm [3] [%]	inhibition at 1 ppm [4] [%]	inhibition at 5 ppm [4] [%]	inhibition at 1 ppm [5] [%]	inhibition at 5 ppm [5] [%]	inhibition at 1 ppm [6] [%]	inhibition at 5 ppm [6] [%]	inhibition at 1 ppm [7] [%]	inhibition at 5 ppm [7] [%]	inhibition at 1 ppm [8] [%]	inhibition at 5 ppm [8] [%]	inhibition at 1 ppm [9] [%]	inhibition at 5 ppm [9] [%]	pest or weed control at 5 ppm (black shank in potatoes) [%]	pest or weed control at 10 ppm (black shank in potatoes) [%]	further results
COCCCOC(=O)c1cn(C2CC2)c2cc(OC)c(F)cc2c1=O [Compound 323]	≥ 90	≥ 90	≥ 90	≥ 90	≥ 90	≥ 90	≥ 90	≥ 90	≥ 90	≥ 90	≥ 90	≥ 90	≥ 90	≥ 90	≥ 90	≥ 90	≥ 90	≥ 90	≥ 90	≥ 90	Rate of chlorophyll content increase (%) [10]: 19%; Rate of growth rate increase (%) [10]: 13%; Rate of leaf area increase (%) [10]: 13%; safety for plant growth (discoloration, necrosis, wilt, malformation) (cucumber seedlings): safe for plant growth; pest or weed control at 5 ppm [11]: ≥ 90%; pest or weed control at 10 ppm [11]: ≥ 90%; pest or weed control at 5 ppm [12]: ≥ 90%; pest or weed control at 10 ppm [12]: ≥ 90%; pest or weed control at 5 ppm (bacterial blight in rice): ≥ 90%; pest or weed control at 10 ppm (bacterial blight in rice): ≥ 90%; pest or weed control at 5 ppm [13]: ≥ 90%; pest or weed control at 10 ppm [13]: ≥ 90%; pest or weed control at 5 ppm [14]: ≥ 90%; pest or weed control at 10 ppm [14]: ≥ 90%
O=C(OCCCO)c1cn(C2CC2)c2cc(F)ccc2c1=O [Compound 207]	≥ 90	≥ 90	≥ 90	≥ 90	≥ 90	≥ 90	≥ 90	≥ 90	≥ 90	≥ 90	≥ 90	≥ 90	≥ 90	≥ 90	≥ 90	≥ 90	≥ 90	≥ 90	≥ 90	≥ 90	Rate of chlorophyll content increase (%) [10]: 13%; Rate of growth rate increase (%) [10]: 6%; Rate of leaf area increase (%) [10]: 10%; safety for plant growth (discoloration, necrosis, wilt, malformation) (cucumber seedlings): safe for plant growth; pest or weed control at 5 ppm [11]: ≥ 90%; pest or weed control at 10 ppm [11]: ≥ 90%; pest or weed control at 5 ppm [12]: ≥ 90%; pest or weed control at 10 ppm [12]: ≥ 90%; pest or weed control at 5 ppm (bacterial blight in rice): ≥ 90%; pest or weed control at 10 ppm (bacterial blight in rice): ≥ 90%; pest or weed control at 5 ppm [13]: ≥ 90%; pest or weed control at 10 ppm [13]: ≥ 90%; pest or weed control at 5 ppm [14]: ≥ 90%; pest or weed control at 10 ppm [14]: ≥ 90%
COCCOC(=O)c1cn(C2CC2)c2cc(F)ccc2c1=O [Compound 195]	≥ 90	≥ 90	≥ 90	≥ 90	≥ 90	≥ 90	≥ 90	≥ 90	≥ 90	≥ 90	≥ 90	≥ 90	≥ 90	≥ 90	≥ 90	≥ 90	≥ 90	≥ 90	≥ 90	≥ 90	Rate of chlorophyll content increase (%) [10]: 12%; Rate of growth rate increase (%) [10]: 7%; Rate of leaf area increase (%) [10]: 9%; safety for plant growth (discoloration, necrosis, wilt, malformation) (cucumber seedlings): safe for plant growth; pest or weed control at 5 ppm [11]: ≥ 90%; pest or weed control at 10 ppm [11]: ≥ 90%; pest or weed control at 5 ppm [12]: ≥ 90%; pest or weed control at 10 ppm [12]: ≥ 90%; pest or weed control at 5 ppm (bacterial blight in rice): ≥ 90%; pest or weed control at 10 ppm (bacterial blight in rice): ≥ 90%; pest or weed control at 5 ppm [13]: ≥ 90%; pest or weed control at 10 ppm [13]: ≥ 90%; pest or weed control at 5 ppm [14]: ≥ 90%; pest or weed control at 10 ppm [14]: ≥ 90%
